In patent US10183021B2, “sGC stimulators” (Ironwood Pharmaceuticals, Inc., priority 2013, dated 2019):

These compounds were tested against soluble guanylate cyclase (sGC) (Homo sapiens (Human), UniProt Q02108+Q02153) (assay: sGC-HEK-cGMP assay, new protocol with DETA-NONOate, LC/MS detection (Example 2C)). Conditions: read-out: Absolute EC50 (uM) - binned.
Format: cell-based

Sequence of soluble guanylate cyclase (sGC) (Q02153 whole entry): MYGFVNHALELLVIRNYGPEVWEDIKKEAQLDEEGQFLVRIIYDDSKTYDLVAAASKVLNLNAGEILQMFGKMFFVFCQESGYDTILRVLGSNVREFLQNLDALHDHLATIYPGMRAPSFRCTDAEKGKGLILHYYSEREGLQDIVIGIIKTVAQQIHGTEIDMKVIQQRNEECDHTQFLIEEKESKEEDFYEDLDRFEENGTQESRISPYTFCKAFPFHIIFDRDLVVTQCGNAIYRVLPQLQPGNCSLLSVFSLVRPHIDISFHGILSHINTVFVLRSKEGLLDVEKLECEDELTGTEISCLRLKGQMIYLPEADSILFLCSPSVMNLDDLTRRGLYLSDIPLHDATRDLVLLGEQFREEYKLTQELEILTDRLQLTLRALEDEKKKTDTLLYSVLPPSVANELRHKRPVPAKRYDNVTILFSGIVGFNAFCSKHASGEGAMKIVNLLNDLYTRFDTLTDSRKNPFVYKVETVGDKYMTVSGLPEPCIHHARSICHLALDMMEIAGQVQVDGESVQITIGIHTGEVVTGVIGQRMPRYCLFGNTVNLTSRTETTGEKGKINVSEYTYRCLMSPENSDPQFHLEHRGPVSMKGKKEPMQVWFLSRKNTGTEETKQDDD
Sequence of soluble guanylate cyclase (sGC) (Q02108 whole entry): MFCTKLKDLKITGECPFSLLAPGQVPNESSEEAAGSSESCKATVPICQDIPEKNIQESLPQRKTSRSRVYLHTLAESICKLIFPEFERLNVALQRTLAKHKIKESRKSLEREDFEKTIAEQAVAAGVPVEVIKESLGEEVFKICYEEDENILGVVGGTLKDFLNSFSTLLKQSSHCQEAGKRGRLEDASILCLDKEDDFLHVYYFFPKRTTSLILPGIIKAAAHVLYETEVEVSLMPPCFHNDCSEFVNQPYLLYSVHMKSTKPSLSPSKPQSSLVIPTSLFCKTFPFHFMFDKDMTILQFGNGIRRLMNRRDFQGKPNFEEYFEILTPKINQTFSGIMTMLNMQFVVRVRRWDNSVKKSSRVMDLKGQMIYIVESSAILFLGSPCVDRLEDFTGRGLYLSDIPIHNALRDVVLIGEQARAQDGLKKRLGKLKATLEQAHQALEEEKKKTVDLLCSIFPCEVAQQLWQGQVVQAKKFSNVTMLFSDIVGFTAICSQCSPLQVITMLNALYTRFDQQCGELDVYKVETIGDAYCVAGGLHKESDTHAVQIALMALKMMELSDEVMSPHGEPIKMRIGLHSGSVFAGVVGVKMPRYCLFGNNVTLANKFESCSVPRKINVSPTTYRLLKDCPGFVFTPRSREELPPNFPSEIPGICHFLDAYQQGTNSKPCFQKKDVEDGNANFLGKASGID

| SMILES | EC50 [µM] |
| --- | --- |
| O=C(O)[C@H]1[C@@H](c2ccccc2)CCCN1c1nc(-c2cc(-c3ccon3)n(Cc3ccccc3F)n2)ncc1F [Compound I-319] | < 0.1 |
| OC(C1CN(c2nc(-c3cc(-c4ccon4)n(Cc4ccccc4F)n3)ncc2F)C1)(C(F)(F)F)C(F)(F)F [Compound I-357] | > 1 |
| CN(c1nc(-c2cc(-c3ccon3)n(Cc3ccccc3F)n2)ncc1F)[C@@H]1CC[C@H](C(=O)O)C1 [Compound I-309] | < 0.1 |
| CN(CC(C)(O)C(N)=O)c1nc(-c2cc(-c3ccon3)n(Cc3ccccc3F)n2)ncc1F (centres unmarked) [Compound I-393] | 0.101 to 1 |
| CCCS(=O)(=O)Nc1nc(-c2cc(-c3ccon3)n(Cc3ccccc3F)n2)ncc1F [Compound I-611] | 0.101 to 1 |
| CC1(C(=O)Nc2ccnc(-c3cc(-c4ccon4)n(Cc4ccccc4F)n3)n2)CC1 [Compound I-569] | > 1 |
| CS(=O)(=O)C1(CNc2nc(-c3cc(-c4ccon4)n(Cc4ccccc4F)n3)ncc2F)CC1 [Compound I-545] | < 0.1 |
| COC(=O)NCC(=O)Nc1ccnc(-c2cc(-c3ccon3)n(Cc3ccccc3F)n2)n1 [Compound I-603] | 0.101 to 1 |
| O=C(O)C(O)(CNc1nc(-c2cc(-c3ccon3)n(Cc3ccccc3F)n2)ncc1F)C(F)(F)F (centres unmarked) [Compound I-467] | > 1 |
| O=C(Nc1ccnc(-c2cc(-c3ccon3)n(Cc3ccccc3F)n2)n1)C1(C(F)(F)F)CC1 [Compound I-328] | > 1 |
| Cc1cc(-c2ncc(F)c(NCC(O)(C(F)(F)F)C(F)(F)F)n2)nn1Cc1ccccc1F [Compound I-414] | > 1 |
| CN(CC(C)(C)C(=O)O)c1nc(-c2cc(-c3ccon3)n(Cc3ccccc3F)n2)ncc1F [Compound I-383] | < 0.1 |
| CN(CC1(C(=O)O)CC1)c1nc(-c2cc(-c3cscn3)n(Cc3ccccc3F)n2)ncc1F [Compound I-345] | < 0.1 |
| OCCN(CCO)c1nc(-c2cc(-c3ccon3)n(Cc3ccccc3F)n2)ncc1F [Compound I-428] | < 0.1 |
| CC(C(=O)Nc1ccnc(-c2cc(-c3ccon3)n(Cc3ccccc3F)n2)n1)S(C)(=O)=O (centres unmarked) [Compound I-587] | 0.101 to 1 |
| OC[C@@H]1C[C@@H](O)CN1c1nc(-c2cc(-c3ccon3)n(Cc3ccccc3F)n2)ncc1F [Compound I-435] | < 0.1 |
| NCCNc1nc(-c2cc(-c3ccon3)n(Cc3ccccc3F)n2)ncc1F [Compound I-391] | 0.101 to 1 |
| CC(=O)c1cc(-c2ncc(F)c(N(C)CC3(C(=O)O)CC3)n2)nn1Cc1ccccc1F [Compound I-451] | 0.101 to 1 |
| Cc1cn(CC(=O)Nc2ccnc(-c3cc(-c4ccon4)n(Cc4ccccc4F)n3)n2)c(=O)[nH]c1=O [Compound I-571] | > 1 |
| O=C1CCC(C(=O)Nc2ccnc(-c3cc(-c4ccon4)n(Cc4ccccc4F)n3)n2)N1 (centres unmarked) [Compound I-459] | > 1 |
| O=C(O)c1cccc(CCNc2nc(-c3cc(-c4ccon4)n(Cc4ccccc4F)n3)ncc2F)c1 [Compound I-377] | < 0.1 |
| O=S(=O)(O)C1CCN(c2nc(-c3cc(-c4ccon4)n(Cc4ccccc4F)n3)ncc2F)CC1 [Compound I-363] | > 1 |
| O=S(=O)(CCC(F)(F)F)Nc1nc(-c2cc(-c3ccon3)n(Cc3ccccc3F)n2)ncc1F [Compound I-445] | 0.101 to 1 |
| O=C1OC(C(F)(F)F)CN1c1ccnc(-c2cc(-c3ccon3)n(Cc3ccccc3F)n2)n1 (centres unmarked) [Compound I-482] | > 1 |
| NS(=O)(=O)C1CCN(c2nc(-c3cc(-c4ccon4)n(Cc4ccccc4F)n3)ncc2F)C1 (centres unmarked) [Compound I-427] | < 0.1 |
| Cc1ccc(S(=O)(=O)NC(C)C(=O)Nc2ccnc(-c3cc(-c4ccon4)n(Cc4ccccc4F)n3)n2)cc1 (centres unmarked) [Compound I-548] | > 1 |
| O[C@@H]1CN(c2nc(-c3cc(-c4ccon4)n(Cc4ccccc4F)n3)ncc2F)CC[C@@H]1O [Compound I-350] | < 0.1 |

| SMILES | EC50 [µM] |
| --- | --- |
| CC1(C)CCN(c2ccnc(-c3cc(-c4ccon4)n(Cc4ccccc4F)n3)n2)C1=O [Compound I-494] | 0.101 to 1 |
| CN(C[C@@H](O)CO)c1nc(-c2cc(-c3ccon3)n(Cc3ccccc3F)n2)ncc1F [Compound I-321] | < 0.1 |
| CC1(C(=O)O)CCCN(c2nc(-c3cc(-c4ccon4)n(Cc4ccccc4F)n3)ncc2F)C1 (centres unmarked) [Compound I-406] | < 0.1 |
| O=C1CCS(=O)(=O)N1c1nc(-c2cc(-c3ccon3)n(Cc3ccccc3F)n2)ncc1F [Compound I-612] | < 0.1 |
| CC(C)(C)OC(=O)NCCNc1nc(-c2cc(-c3ccon3)n(Cc3ccccc3F)n2)ncc1F [Compound I-390] | < 0.1 |
| CS(=O)(=O)CCC(Nc1nc(-c2cc(-c3ccon3)n(CCC(F)(F)F)n2)ncc1F)C(F)(F)F (centres unmarked) [Compound I-626] | > 1 |
| O=C(Cc1nccs1)Nc1ccnc(-c2cc(-c3ccon3)n(Cc3ccccc3F)n2)n1 [Compound I-469] | 0.101 to 1 |
| NC(=O)C1(CNc2nc(-c3cc(-c4ccon4)n(Cc4ccccc4F)n3)ncc2F)CC1 [Compound I-515] | < 0.1 |
| Cc1cc(-c2ncc(F)c(N3CCC[C@H](C)[C@@H]3C(=O)O)n2)nn1Cc1ccccc1F [Compound I-412] | > 1 |
| OC1(C(F)(F)F)CN(c2nc(-c3cc(-c4ccon4)n(Cc4ccccc4F)n3)ncc2F)C1 [Compound I-396] | < 0.1 |
| O=C(Nc1nc(-c2cc(-c3ccon3)n(Cc3ccccc3F)n2)ncc1F)C(F)(F)F [Compound I-465] | 0.101 to 1 |
| O=C(Nc1ccnc(-c2cc(-c3ccon3)n(Cc3ccccc3F)n2)n1)C1CCOCC1 [Compound I-574] | 0.101 to 1 |
| O=C(O)C(Nc1nc(-c2cc(-c3ccon3)n(Cc3ccccc3F)n2)ncc1F)C(F)(F)F (centres unmarked) [Compound I-403] | 0.101 to 1 |
| COC(C(=O)Nc1ccnc(-c2cc(-c3ccon3)n(Cc3ccccc3F)n2)n1)(c1ccccc1)C(F)(F)F (centres unmarked) [Compound I-572] | > 1 |
| O=C(CO)N(CC(F)(F)F)c1nc(-c2cc(-c3ccon3)n(Cc3ccccc3F)n2)ncc1F [Compound I-566] | 0.101 to 1 |
| OCC(F)(F)CNc1nc(-c2cc(-c3ccon3)n(Cc3ccccc3F)n2)ncc1F [Compound I-521] | < 0.1 |
| COc1ccc(S(=O)(=O)Nc2nc(-c3cc(-c4ccon4)n(Cc4ccccc4F)n3)ncc2F)cc1OC [Compound I-614] | 0.101 to 1 |
| CC(C)C(Nc1nc(-c2cc(-c3ccon3)n(Cc3ccccc3F)n2)ncc1F)C(=O)NC1CC1 (centres unmarked) [Compound I-508] | < 0.1 |
| O=C1Nc2nc(-c3cc(-c4ccon4)n(Cc4ccccc4F)n3)ncc2OC1(C(F)(F)F)C(F)(F)F [Compound I-492] | 0.101 to 1 |
| NCC(O)CNc1nc(-c2cc(-c3ccon3)n(Cc3ccccc3F)n2)ncc1F (centres unmarked) [Compound I-348] | > 1 |
| CC1(C)CCC(=O)N1c1nc(-c2cc(-c3ccon3)n(Cc3ccccc3F)n2)ncc1F [Compound I-512] | > 1 |
| O=C(O)CCCCNc1nc(-c2cc(-c3ccon3)n(Cc3ccccc3F)n2)ncc1F [Compound I-449] | < 0.1 |
| CC(C)[C@H](CN(C)c1nc(-c2cc(-c3ccon3)n(Cc3ccccc3F)n2)ncc1F)NS(=O)(=O)C1CC1 [Compound I-344] | < 0.1 |
| CC(C(=O)Nc1nc(-c2cc(-c3ccon3)n(Cc3ccccc3F)n2)ncc1F)S(C)(=O)=O (centres unmarked) [Compound I-589] | 0.101 to 1 |
| O=C1OCC(C(F)(F)F)N1c1ccnc(-c2cc(-c3ccon3)n(Cc3ccccc3F)n2)n1 (centres unmarked) [Compound I-504] | > 1 |
| O=C(Nc1ccnc(-c2cc(-c3ccon3)n(Cc3ccccc3F)n2)n1)C1(OCc2ccccc2)CC1 [Compound I-461] | > 1 |
